Experiment [1] deals with T1, Human recombinant MMP1 (Homo sapiens, UniProt P03956).
T1 sequence (P03956 100-469): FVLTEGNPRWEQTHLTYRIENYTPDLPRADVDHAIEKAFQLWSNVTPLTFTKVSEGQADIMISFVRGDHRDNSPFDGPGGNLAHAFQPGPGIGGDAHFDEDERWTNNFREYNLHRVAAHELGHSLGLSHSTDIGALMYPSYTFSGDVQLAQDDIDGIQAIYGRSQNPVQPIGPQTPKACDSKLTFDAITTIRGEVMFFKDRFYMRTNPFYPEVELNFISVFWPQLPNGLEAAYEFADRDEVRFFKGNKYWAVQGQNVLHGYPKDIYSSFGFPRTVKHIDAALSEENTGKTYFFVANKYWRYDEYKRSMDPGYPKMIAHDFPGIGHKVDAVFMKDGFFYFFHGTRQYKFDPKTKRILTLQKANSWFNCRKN
Description: MMP1 (Collagenase-1) inhibition, 14C collagen release. As to conditions: 35° C., 5 hours; read-out: MMP-1 inhibitory activity, IC50. The class given is biochemical.

Experiment [2] has as its target T2, MMP2 (Gelatinase A) (Homo sapiens, UniProt P08253).
T2 sequence (P08253 110-660): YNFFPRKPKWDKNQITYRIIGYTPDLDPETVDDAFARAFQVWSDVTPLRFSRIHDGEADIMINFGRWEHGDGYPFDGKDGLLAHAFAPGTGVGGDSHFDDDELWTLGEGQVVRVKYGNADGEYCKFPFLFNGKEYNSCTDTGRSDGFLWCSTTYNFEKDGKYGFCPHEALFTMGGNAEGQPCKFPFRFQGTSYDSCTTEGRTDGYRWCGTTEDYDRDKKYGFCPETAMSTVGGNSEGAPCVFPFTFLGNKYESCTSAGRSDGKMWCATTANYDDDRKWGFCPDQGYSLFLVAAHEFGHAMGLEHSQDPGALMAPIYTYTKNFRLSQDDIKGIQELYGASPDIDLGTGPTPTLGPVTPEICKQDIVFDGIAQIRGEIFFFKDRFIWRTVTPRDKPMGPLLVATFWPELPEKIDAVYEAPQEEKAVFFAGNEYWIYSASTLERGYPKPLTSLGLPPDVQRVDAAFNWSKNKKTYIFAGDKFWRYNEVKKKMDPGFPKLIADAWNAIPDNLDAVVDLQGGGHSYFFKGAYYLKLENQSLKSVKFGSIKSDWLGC
Description: MMP2 (Gelatinase A) inhibition, 14C gelatin release. As to conditions: 37° C., 16 hours; read-out: MMP-2 inhibitory activity, IC50. It is filed as biochemical.

Experiment [3] has as its target Human recombinant MMP3 (Homo sapiens, UniProt P08254). Kind of experiment: MMP3 (Stromelysin 1) inhibition, 14C casein release. It is filed as biochemical. To be noted: 37° C., 16 hours; read-out: MMP-3 inhibitory activity, IC50.
Experiment [4] has as its target Human recombinant MMP9 (Homo sapiens, UniProt P14780). Description: MMP9 (Gelatinase B) inhibition, 14C gelatin release. The class given is biochemical. To be noted: 37° C., 16 hours; read-out: MMP-9 inhibitory activity, IC50.
Description: Protocol for Measuring MMP9 (Gelatinase B) Inhibition
MMP9 activity was determined by the release of trichloracetic acid, TCA soluble fragments from ^14C acetylated rat skin type I (Methods in Enzymology 248, 470, 1995. Biochem. J. 195, 1981)
• 100 μg ^14C labelled gelatin (collagen denatured 60° C. 20 min) • 50 mM Tris HCl pH 7.9 • 15 mM CaCl2, 0.02% azide • Human recombinant MMP9, 1.2–2 nM • ±Tetracycline (up to 1 mM) in a total volume of 250 μl.
Incubations were at 37° C. for 16 hours. The incubations were stopped by cooling the incubations and addition of 50 μl cold 90% (w/v) trichloracetic acid with careful mixing. TCA precipitation was allowed to proceed for 15 minutes at 4° C. prior to centrifugation at 10,000 g for 10 minutes at 4° C. 200 μl of the TCA supernatant was taken for the determination of radioactive content by scintillation counting (Packard Opti Phase Supermix scintillation fluid). Only data derived from within the linear part of the assay (10–70% lysis) were utilized. The percentage inhibition of MMP9 by each tetracycline concentration were plotted to derive the IC50 value.
The target in experiment [5] is Human recombinant MMP14 (Homo sapiens, UniProt P50281). Kind of experiment: MMP14 (MTI-MMP) inhibition, 14C collagen release. As to conditions: 35° C., 15 hours; read-out: MMP-14 inhibitory activity, IC50. It is filed as biochemical.
Description: Protocol for Measuring MMP14 (MTI-MMP) Inhibition by Tetracycline Derivatives
MMP14 activity was determined by the release of soluble ^14C labelled collagen fragments from ^14C acetylated rat skin type I collagen (Methods in Enzymology 80 711, 1981).
• 100 μg ^14C labelled collagen (5–6000 dpm) • 50 mM Tris HCL pH 7.9 • 15 mM CaCl2 0.02% azide • Human recombinant MMP14 50–100 nM • ±Tetracycline (up to 1 mM) in a total volume of 300 μl.
Incubations were at 35° C. for 15 hours. Uncleaved collagen fibrils (which form within the first 10 minutes) were removed by centrifugation at 10,000 g 4° C. 10 minutes 200 μl supernatant were counted in Packard Opti Phase Supermix scintillation fluid using a scintillation counter. Only data derived from within the linear part of the assay (10–70% lysis of the collagen) were utilized. Based on percentage inhibition of the activity of MMP1 alone by a range of concentrations of each sample, the IC50 value for each tetracycline was calculated.
Experiment [6] relates to MDA-MB-231 human breast cancer cells. Kind of experiment: Membrane Invasion Culture System (MICS) chemo-invasion assay. It is filed as cell-based. As to conditions: 25 ug/mL; 24 hours; + = increased invasiveness. The source says:
(§1) Another objective was to analyze the effects of specific, tetracycline derived compounds on the in-vitro chemo-invasive potential of: • C8161 human melanoma cells • MDA-MB-231 human breast cancer cells • PC3 human prostate cancer cells • RPM18226 human myeloma cancer cells • Ark human myeloma cancer cells • Arp-1 human myeloma cancer cells
(§2) The Membrane Invasion Culture System (MICS) in vitro chemo-invasion assay was chosen to measure changes in the invasive potential of specific human cancer cells in response to tetracycline derived compounds. Stock solutions of each compound were hydrated in water containing 2% DMSO and pH 10.0. Upon solubilization, HCl was added to the solution to establish a pH of 7.5–8.0. This solution was then wrapped in foil and kept at 4° C. during the 24 hours of assay. Fresh compound was prepared for each assay. The in vitro chemoinvasion analyses for tumor cell invasiveness are performed using the Membrane Invasion Culture System (MICS) as previously described.
(§3) The MICS system is a thermally treated plastic manifold system consisting of two matched sets of plates containing fourteen wells, 13 mm in diameter. Interposed between these plates was a polycarbonate filter containing 10 μm pores and coated with a defined matrix composed of human laminin/collagen IV/gelatin that formed a 35 μm thick barrier between the top and bottom sections of the wells in MICS. Prior to placing this barrier in place, the lower wells were filled with serum-free RPMI culture medium made 50% in conditioned medium obtained from 2-day-old cultures of human fibroblasts which had been cleared of cells and cellular debris by either centrifugation, or filtering through a 0.45 μm sterile filter. The barrier was then placed on the lower wells and fresh serum-free medium added to the upper wells after assembly of the system. Fifty thousand tumor cells were then added to the wells either in the presence of the compound, or the DMSO vehicle (the controls). Of the 12 assay wells on each manifold, 3 randomized wells acted as controls, 3 wells received 1 μg/ml of compound, 3 received 10 μg/ml and 3 received 25 μg/ml. After 24 hours, cells and media were removed from the lower wells and replaced by phosphate buffered saline plus 2 mM EDTA. This solution was used to remove all cells from the lower well, and this wash was added to the recovered cells plus medium from the same well. These samples were then collected onto a polylysine containing polycarbonate membrane containing 3 μm pores using a Dot-Blot manifold system. These collection filters were then fixed in methanol, and stained using Wright's stain (Leukostat staining kit) in situ. The filters were then mounted on microscope slides with microscope immersion oil (which reduced the light refraction from the pores) and 5 microscopic fields were counted to calculate the number of cells which invaded through the membrane over the 24 hour period. These numbers were then statistically analyzed as discussed below.

Experiment [7] has as its system PC-3 ML human prostate cancer cells. The description is as above. As to conditions: 24 hours, + = increased invasiveness. The class given is cell-based.
Text: as §1, §2, §3

The subject of experiment [8] is RPMI-8226 human myeloma cancer cells. The experiment is described as above. The class given is cell-based. To be noted: 24 hours, + = increased invasiveness.
Text: as §1, §2, §3

Experiment [9] concerns C8161 human melanoma cells. The description is as above. It is filed as cell-based. To be noted: 25 ug/mL; 24 hours; + = increased invasiveness.
Text: as §1, §2, §3

“And” between values parts separate entries of the source, which are not always exact repeats. Equal entries are not always repeated. Structures can show the parent of a compound that is named as a salt.

Chain of Human recombinant MMP9 (P14780 94-707): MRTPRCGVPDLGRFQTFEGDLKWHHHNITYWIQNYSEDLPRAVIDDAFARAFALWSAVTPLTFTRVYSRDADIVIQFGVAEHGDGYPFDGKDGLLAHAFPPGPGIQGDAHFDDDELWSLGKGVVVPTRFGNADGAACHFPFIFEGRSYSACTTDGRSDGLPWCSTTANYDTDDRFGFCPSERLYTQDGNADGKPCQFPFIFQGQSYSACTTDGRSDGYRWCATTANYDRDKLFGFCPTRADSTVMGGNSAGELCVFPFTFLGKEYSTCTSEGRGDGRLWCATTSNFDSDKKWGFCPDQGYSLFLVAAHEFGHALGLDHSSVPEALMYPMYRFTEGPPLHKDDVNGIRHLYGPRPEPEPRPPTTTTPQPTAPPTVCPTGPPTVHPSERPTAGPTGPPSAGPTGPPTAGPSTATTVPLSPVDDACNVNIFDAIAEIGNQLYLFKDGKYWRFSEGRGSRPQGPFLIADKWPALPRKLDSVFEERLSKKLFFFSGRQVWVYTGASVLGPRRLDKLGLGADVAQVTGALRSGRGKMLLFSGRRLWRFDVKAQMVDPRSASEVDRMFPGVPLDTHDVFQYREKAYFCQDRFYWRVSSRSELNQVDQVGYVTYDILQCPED
Chain of Human recombinant MMP3 (P08254 100-477): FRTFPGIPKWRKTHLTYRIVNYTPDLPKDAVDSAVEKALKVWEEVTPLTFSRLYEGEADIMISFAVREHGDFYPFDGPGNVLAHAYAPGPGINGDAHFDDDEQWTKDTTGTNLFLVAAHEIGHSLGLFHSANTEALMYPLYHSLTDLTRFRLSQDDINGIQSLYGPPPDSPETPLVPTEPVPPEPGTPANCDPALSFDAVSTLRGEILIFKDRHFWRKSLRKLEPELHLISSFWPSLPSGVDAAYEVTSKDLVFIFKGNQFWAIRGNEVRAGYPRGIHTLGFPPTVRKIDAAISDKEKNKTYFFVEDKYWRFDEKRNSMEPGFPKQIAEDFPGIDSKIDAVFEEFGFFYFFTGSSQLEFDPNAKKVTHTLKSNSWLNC

In general, IC50 refers to the point on the concentration scale where inhibition reaches its midpoint. Consider `CC(C)CN(C)c1ccc(O)c2c1C(C)C1C(=C(O)C3(O)C(=O)C(C(N)=O)=C(O)C(N(C)C)C3C1O)C2=O` (stereo not drawn) [Compound 27, 7-Isobutylmethylamino-6-deoxy-5-hydroxytetracycline H2SO4], for which the IC50 in [1] is 498 µM; in experiment [2], 963 µM; in experiment [3], 149 µM; in [4], 101 µM; in experiment [5], 92 µM. In addition, the “percent inhibition, MDA-MB-231 (Breast)” value in [6] was 72^B percent and 48^B percent. The “percent inhibition, PC-3 ML (Prostrate)” value in [7] (1 ug/mL) was 17^B percent and 9%; in experiment [7] (10 ug/mL), 35^B percent and 56^B percent; in [7] (25 ug/mL), 70%. The “percent inhibition, RPMI-8226 (Multiple Myeloma)” value was 24^B percent and 20% in experiment [8] (1 ug/mL); 6% and 9% in experiment [8] (10 ug/mL).
For the compound `CC(=O)OC1C2C(=C(O)C3(O)C(=O)C(C(N)=O)=C(O)C(N(C)C)C13)C(=O)c1c(O)cccc1C2C` (stereo not drawn) [Compound 28, 6-Deoxy-5-acetoxy-tetracycline H2SO4], the IC50 in experiment [1] was over 1000 µM; in experiment [2] it was over 1000 µM; in experiment [3], 231 µM; in [4] it was 125 µM; in [5], 49 µM. Moreover, the “percent inhibition, MDA-MB-231 (Breast)” value in experiment [6] is 54^B percent and 45^B percent. In addition, in [7] (25 ug/mL), the “percent inhibition, PC-3 ML (Prostrate)” value is 80% and 61%. For the same compound, the “percent inhibition, RPMI-8226 (Multiple Myeloma)” value in experiment [8] (1 ug/mL) is 4% and 5%; in [8] (25 ug/mL), 34^B percent and 62^B percent.
As to `CC(=O)N(CC(C)C)c1ccc(O)c2c1C(C)C1C(=C(O)C3(O)C(=O)C(C(N)=O)=C(O)C(N(C)C)C3C1O)C2=O.O=S(=O)(O)O` (stereo not drawn) [Compound 29, 7-Acetylisobutylamino-6-deoxy-5-hydroxytetracycline H2SO4], the IC50 was 895 µM in experiment [1]; 983 µM in experiment [2]; 213 µM in experiment [3]; 172 µM in experiment [4]; 98 µM in experiment [5]. Besides, in experiment [7] (25 ug/mL), the “percent inhibition, PC-3 ML (Prostrate)” value is 58% and 69%. The “percent inhibition, RPMI-8226 (Multiple Myeloma)” value in [8] (10 ug/mL) was 12% and 13%.
For the compound `CC(=O)Nc1cc([N+]#N)c(O)c2c1C(C)C1C(=C(O)C3(O)C(=O)C(C(N)=O)=C(O)C(N(C)C)C3C1O)C2=O` (stereo not drawn) [Compound 30, 7-Acetamido-6-deoxy-5-hydroxytetracycline-9-diazonium H2SO4], the IC50 in [1] is 576 µM; in [2] it was over 1000 µM; in experiment [3], 938 µM; in experiment [4], over 1000 µM; in experiment [5], over 1000 µM.
`C[C@H]1c2c(N(C)C)cc([N+]#N)c(O)c2C(=O)C2=C(O)[C@]3(O)C(=O)C(C(N)=O)=C(O)[C@@H](N(C)C)[C@@H]3[C@@H](O)[C@@H]21` [Compound 31, 7-Dimethylamino-6-deoxy-5-hydroxytetracycline-9-diazonium H2SO4]: the IC50 in [1] was 621 µM; in [2] it was 258 µM; in [3], over 1000 µM; in experiment [4], 311 µM; in [5], 593 µM.
The like results for `CC1c2c(NC3CCC3)ccc(O)c2C(=O)C2=C(O)C3(O)C(=O)C(C(N)=O)=C(O)C(N(C)C)C3C(O)C21` (stereo not drawn) [Compound 32, 7-Cyclobutylamino-6-deoxy-5-hydroxytetracycline H2SO4] were, in that order, 601 µM, 236 µM, 244 µM, 214 µM and 197 µM.
The like results for `CC1c2cccc(O)c2C(=O)C2=C(O)C3(O)C(=O)C(C(N)=O)=C(O)CC3C(O)C21` (stereo not drawn) [Compound 34, 4-Dedimethylamino-6-deoxy-5-hydroxytetracycline] were, in that order, 242 µM, 242 µM, 136 µM, 308 µM and 197 µM.
The like results for `CC1c2ccc([N+](=O)[O-])c(O)c2C(=O)C2=C(O)C3(O)C(=O)C(C(N)=O)=C(O)CC3C(O)C21` (stereo not drawn) [Compound 35, 4-Dedimethylamino-6-deoxy-5-hydroxy-9-nitrotetracycline] were, in that order, 947 µM, 249 µM, 218 µM, 397 µM and 108 µM.
`CC1c2ccc(N)c(O)c2C(=O)C2=C(O)C3(O)C(=O)C(C(N)=O)=C(O)CC3C(O)C21` (stereo not drawn) [Compound 36, 9-animo-4-dedimethylamino-6-deoxy-5-hydroxytetracycline sulfate]: the IC50 in experiment [1] was 539 µM; in experiment [2] it was over 1000 µM; in experiment [3], 283 µM; in [4] it was over 1000 µM; in experiment [5], 608 µM.
On to `CC1c2c([N+](=O)[O-])cc(C(C)(C)C)c(O)c2C(=O)C2=C(O)C3(O)C(=O)C(C(N)=O)=C(O)C(N(C)C)C3C(O)C21` (stereo not drawn) [Compound 38, 7-nitro-9-tertbutyl-6-deoxy-5-hydroxytetracycline H2SO4], for which the IC50 in experiment [1] is 230 µM; in [2] it was 175 µM; in experiment [3] it was 95 µM; in experiment [4], 215 µM; in experiment [5], 69 µM. The “percent inhibition, C8161 (Melanoma)” value in experiment [9] is 66^B percent and 39%. The “percent inhibition, MDA-MB-231 (Breast)” value in [6] was 70^B percent and 37%. The “percent inhibition, PC-3 ML (Prostrate)” value in experiment [7] (1 ug/mL) is 37^B percent and 38^B percent; in experiment [7] (10 ug/mL) it was 41^B percent and 27^B percent; in experiment [7] (25 ug/mL) it was 41% and 52%.
For `C[C@H]1c2c(N)ccc(O)c2C(=O)C2=C(O)[C@]3(O)C(=O)C(C(N)=O)=C(O)C[C@@H]3[C@@H](O)[C@@H]21` [Compound 48, 4-Dedimethylamino-7-amino-6-deoxy-5-hydroxyltetracycline H2SO4], the IC50 in experiment [1] is 12800 µM; in experiment [2], 1930 µM; in [3], 506 µM; in experiment [4], 424 µM; in experiment [5], 354 µM.

Source of the values: patent US7214669B2, “Tetracycline derivatives and methods of use thereof” (Tetragenex Pharmaceuticals, Inc., priority 2001, dated 2007).
